Results on six compounds are retold here after patent publication US3984431A, “Derivatives of pyrazole-5-acetic acid” (priority 1972, dated 1976).

The test system of assay [1] is Pain (cramp) caused by acetic acid. Kind of assay: Analgesic action: pain (cramp) caused by acetic acid in the mouse (Siegmund). To be noted: for ED50: sc, read-out: 50% effective dose. The format is in vivo. On the procedure: The analgesic action was tested in relation to the pain caused in the mouse by the subcutaneous injection of acetic acid.
(§1) In all cases the products of the invention are compared to the following reference substances, aspirin, phenylbutazone, indomethacine.

For assay [2], the system named is Carragheen induced oedema. Kind of assay: Anti-inflammatory action: carragheen induced oedema (Winter). It is filed as in vivo, rat. To be noted: read-out: 50% effective dose.
From the text: 1. Carragheen induced odema; method of Winter Arch. intern.
as §1

For assay [3], the system named is Ultra-violet induced erythema. Kind of assay: Anti-inflammatory action: ultra-violet induced erythema (Winter). It is filed as in vivo, guinea-pig. To be noted: Cavia porcellus, read-out: 50% effective dose.
From the text: 2. Ultra-violet induced erythema; method of Winter Arch. intern.
as §1

Assay [4] relates to Cotton pellet granulema. Kind of assay: Anti-inflammatory action: cotton pellet granuloma (Winter). It is filed as in vivo, rat. Conditions: read-out: 50% effective dose.
From the text: as §1

The test system of assay [5] is Brewer's yeast induced pyrexia. The assay is described as follows: Antipyretic action: Brewer's yeast induced pyrexia (Bianchi). To be noted: read-out: 50% effective dose. The format is in vivo, rat.
From the text: Antipyretic action was established on the pyretic rat by the Bianchi method.
as §1

Assay [6] is described as follows: Overall appraisal of anti-inflammatory, antipyretic and analgesic tests versus reference substances. It is filed as in vivo. To be noted: for overall activity compared with example 5 (in words): compared to example 5; for overall activity compared with phenylbutazone (in words): compared to phenylbutazone. On the procedure:
1. Carragheen induced odema; method of Winter Arch. intern. Pharmacod. volume 112, page 174 (1957)
2. Ultra-violet induced erythema; method of Winter Arch. intern. Pharmacod. volume 114, page 261 (1958)
3. The formation of granulomae caused by the sub-cutaneous implantation of pellets of cotton in the rat; method of Winter Journal of the American Pharmaceutical Association, Science Edition, Volume 46, page 515 (1957)
The analgesic action was tested in relation to the pain caused in the mouse by the subcutaneous injection of acetic acid. Method based upon that of Siegmund, Proceedings of the Society of Experimental Biology and Medicine, volume 75, page 729 (1957)
Antipyretic action was established on the pyretic rat by the Bianchi method. Arzneimittel Forschung, volume 17, page 246 (1967)
as §1

Where [7] appears, read: mouse, acetic acid injected subcutaneously.
[8] abbreviates: guinea-pig, oral administration.
Where [9] appears, read: rat, oral administration, sub-cutaneous implantation of cotton pellets.

Read-outs that look alike come from different tables or passages of the source.

On to `COc1ccc2c(c1)c(CC(=O)O)c(C)n2C(=O)c1ccc(Cl)cc1` [INDOMETHACINE, indomethacine, reference compound], for which the ED50 in assay [1] (Mus musculus) was found to be 5.5 mg/kg; in assay [2] (Rattus norvegicus, po) it was 14 mg/kg; in assay [3] (po) it was 1.5 mg/kg; in assay [4] (Rattus norvegicus, po) it was 8 mg/kg; in assay [5] (Rattus norvegicus), 1.3 mg/kg.

Take `O=C(O)Cc1c(-c2ccccc2)c(-c2ccccc2)nn1Cc1ccccc1` [Example 1, 1-benzyl-3,4-diphenylpyrazolyl-5-acetic acid]: the ED50 in assay [1] (setting [7]) came to 150 mg/kg; in assay [2] (rat, oral administration), 60 mg/kg; in assay [3] (setting [8]) it was 1.6 mg/kg; in assay [4] (setting [9]) it was 80 mg/kg; in assay [5] (pyretic rat) it was 1 mg/kg. Moreover, the “overall activity compared with example 5 (in words)” value in assay [6] is on record as “active substances, although slightly less so than example 5”.

Turning to `CC(=O)Oc1ccccc1C(=O)O` [ASPIRIN, aspirin, reference compound], the ED50 in assay [1] (Mus musculus) came to 130 mg/kg; in assay [2] (Rattus norvegicus, po), 180 mg/kg; in assay [3] (po) it was 50 mg/kg; in assay [5] (Rattus norvegicus), 30 mg/kg.

Consider `CCCCC1C(=O)N(c2ccccc2)N(c2ccccc2)C1=O` [PHENYLBUTAZONE, phenylbutazone, reference compound], for which the ED50 in assay [1] (setting [7]) is 110 mg/kg; in assay [2] (rat, oral administration) it was 120 mg/kg; in assay [3] (setting [8]), 8.5 mg/kg; in assay [4] (setting [9]), 200 mg/kg; in assay [5] (pyretic rat), 10 mg/kg.

Take `CC(C)Cn1nc(-c2ccccc2)c(-c2ccccc2)c1CC(=O)O` [Example 3, 1-isobutyl-3,4-diphenylpyrazolyl-5-acetic acid]: the ED50 in assay [1] (setting [7]) was 180 mg/kg; in assay [2] (rat, oral administration) it was 30 mg/kg; in assay [3] (setting [8]), 1 mg/kg; in assay [4] (setting [9]), 18 mg/kg; in assay [5] (pyretic rat), 0.5 mg/kg. Besides, the “overall activity compared with example 5 (in words)” value in assay [6] is listed as “active substances, although slightly less so than example 5”. Besides, the “overall activity compared with phenylbutazone (in words)” value in assay [6] is listed as “still more powerful than phenylbutazone”.

`O=C(O)Cc1c(-c2ccccc2)c(-c2ccccc2)nn1-c1ccccc1` [Example 5, 1,3,4-triphenylpyrazolyl-5-acetic acid]: in assay [1] (from the table), the “analgesic effect (in words)” value is recorded as “marked analgesic effect”. The ED50 stood at 90 mg/kg in assay [1] (setting [7]); 14 mg/kg in assay [2] (rat, oral administration); 3 mg/kg in assay [3] (setting [8]); 6 mg/kg in assay [4] (setting [9]); 0.6 mg/kg in assay [5] (pyretic rat). Further, the “overall activity compared with indomethacine (in words)” value in assay [6] (compared to indomethacine) was “at least equivalent to indomethacine”. For the same compound, the “overall activity compared with phenylbutazone (in words)” value in assay [6] was “much more powerful than phenylbutazone”. Moreover, the “anti-inflammatory and anti-pyretic activity (in words)” value in assay [6] (from the table) was “powerful anti-inflammatory and anti-pyretic agent”.
